Measurements: patent US20110236405A1, “COAGULATION FACTOR MODULATION FOR CONTROLLING TRANSPLANT ORGAN SIZE” (Tel HaShomer Medical Research Infrastructure and Services …, priority 2008, published 2011)
“And” between values parts separate entries of the source, which are not always exact repeats. Equal entries are not always repeated. Where no end group is shown, it is not given here. The star is where a group is joined. Palmitoyl = CCCCCCCCCCCCCCCC(=O)*

Columns and labels:
Type in all cases: in vivo, mouse
C57BL mice = experiment: G-CSF induced splenomegaly in C57BL and C57BL hemophilic mice; settings: for effect on G-CSF induced splenomegaly: C57BL mice, daily treatment plus G-CSF, versus G-CSF alone; for average spleen weight: G-CSF treated
Procedure: 8 to 10 week old immune competent C57BL mice and C57BL hemophilic (C57BL Hem F8) mice were used for the G-CSF studies.
(§1) 8-10 weeks old NOD-SCID or Factor VIII KO SCID mice were treated by daily subcutaneous injections of recombinant human G-CSF (Neupogen, Amgen) at a dose of 250 μg per kg per day for 7 days. To determine the spleen weight, 7 days after the initiation of G-CSF treatment, mice were euthanized and spleens were harvested.
Enoxaparine (Clexane 20 mg/0.2 ml, Rhone-poulenc, France) was used at a dosage of 200 μg/mouse (dissolved in PBS) and 0.2 ml of the final solution was injected subcutaneously into each mouse once a day.
Dabigatran etexilate (Boehringer Ingelheim Pharma KG, Biberach, Germany) was administrated orally at dosage of 30 mg/kg. Final volume of 0.3 ml dissolved in DDW was administrated daily.
The palmitoylated peptides: pal-RCLSSSAVANRS (PAR1 antagonist, SEQ ID NO: 15) and pal-SGRRYGHALR (PAR4 antagonist, SEQ ID NO: 16) were prepared by solid-phase peptide synthesis using in situ neutralization/HBTU by Hadar Biotec, Israel.
The mice were treated by vehicle control, or with PAR1 antagonist or PAR4 antagonist at 0.5 mg/kg, intraperitonealy on daily basis.

[1] = system: E42 pig liver precursor tissue implanted in Rag-/- mice; experiment: Embryonic pig liver implant growth in Rag-/- mice, pig albumin serum ELISA
Procedure: In addition, immune deficient RAG^−/− mice or RAG^−/− FVIII KO mice were used as hosts for the transplantation studies. To obtain RAG^−/− hemophilic mice (designated RAG^−/− FVIII KO mice), FVIII mutation was introduced into RAG^−/− mice, as was previously described. All mice were kept in small cages (up to five animals per cage) and fed sterile food.
Pig embryos were obtained from the Lahav Institute of Animal Research (Kibbutz Lahav, Israel). […] Warm ischemia time was less than 10 minutes and the embryos were transferred to cold PBS. Spleen, pancreas and liver precursors for transplantation were extracted under a light microscope and were kept in sterile conditions at 4° C. in RPMI 1640 (Biological Industries, Beit HaEmek, Israel) prior to transplantation. Cold ischemia time until transplantation was less than 2 hours.
Transplantation of pig precursors was completed as previously described [Dekel, B. et al., Nat Med (2003) 9, 53-60]. Briefly, transplantation of the embryonic precursors was performed under general anesthesia (2.5% 2,2,2-Tribromoethanol, 97% in PBS, 10 ml/kg intraperitoneally). […]
Pig albumin in mouse serum was measured by a standard ELISA procedure using primary goat anti-pig albumin antibody (human, mouse, and bovine absorbed), affinity purified, and secondary pig specific horseradish-peroxidase conjugated antibody (Catalog Nos. A100-210A and A100-210P, Bethyl). […]

[2] = system: NOD-SCID or Factor VIII KO SCID mice; experiment: G-CSF induced splenomegaly in NOD-SCID and Factor VIII KO SCID mice; settings: for average spleen weight: G-CSF 250 μg per kg per day s.c. for 7 days
Procedure: 8-10 week old immune deficient NOD-SCID or factor VIII KO-SCID mice (Weizmann Institute Animal Breeding Center, Rehovot, Israel) were used for G-CSF studies. To obtain immunodeficient hemophilic mice (designated factor VIII KO-SCID), FVIII-deficient mice were crossed with SCID mice, as was previously described [Aronovich, A. et al., Proc Natl Acad Sci USA (2006) 103: 19075-80].
as §1
Hu Factor VIII was infused into Factor VIII KO SCID mice by osmotic pumps (Azlet pump model 1003D, 1 μl/hr rate, 100 μl total capacity with a continuous delivery for 3 days). Thus, 60 IU Hu factor VIII was dissolved in 100 μl PBS and delivered by the 1003D pump for 3 days. The pump was administrated into the peritoneal cavity. After 3 days, a similar new pump was administrated. Initial concentration of the Hu Factor VIII was calibrated based on Hu Factor VIII half life and its clearance rate [Mordenti, J. et al., Toxicol Appl Pharmacol (1996) 136: 75-81].

Molecule: CCCCCCOC(=O)NC(=N)c1ccc(NCc2nc3cc(C(=O)N(CCC(=O)OCC)c4ccccn4)ccc3n2C)cc1 [Dabigatran, Dabigatran etexilate]
- effect on G-CSF induced splenomegaly (C57BL mice): marked enhancement
- embryonic pig liver growth (pig albumin serum levels) ([1]; Rag-/- mice, Dabigatran etexilate 30 mg/kg orally daily): enhancement

Molecule: Enoxaparine [Clexane]
- effect on G-CSF induced splenomegaly (C57BL mice): marked enhancement
- total average weight of the spleens (C57BL mice; C57BL/6 mice, following G-CSF induction, Clexane 200 μg/mouse s.c. once a day): 266 ± 91 mg
- pig albumin blood levels ([1]; non-hemophilic recipients, days 7 and 21 post transplant, versus control recipients not receiving Clexane): marked enhancements

Molecule: pal-RCLSSSAVANRS (Palmitoyl-RCLSSSAVANRS) [PAR1 antagonist, palmitoylated peptide, PAR1 antagonist]
- effect on G-CSF induced splenomegaly (C57BL mice): significantly enhanced

Molecule: pal-SGRRYGHALR (Palmitoyl-SGRRYGHALR) [PAR4 antagonist, palmitoylated peptide, PAR4 antagonist]
- effect on G-CSF induced splenomegaly (C57BL mice): significantly enhanced

B1: G-CSF: recombinant human G-CSF (Neupogen, Amgen) (protein, chains of the INN, looked up)
chain: MTPLGPASSLPQSFLLKCLEQVRKIQGDGAALQEKLCATYKLCHPEELVLLGHSLGIPWAPLSSCPSQALQLAGCLSQLHSGLFLYQGLLQALEGISPELGPTLDTLQLDVADFATTIWQQMEELGMAPALQPTQGAMPAFASAFQRRAGGVLVASHLQSFLEVSYRVLRHLAQP
- average spleen weight ([2]; Factor VIII KO SCID mice): 314.89 ± 121.51 mg
- average spleen weight, Factor VIII KO SCID versus non-hemophilic mice ([2]; G-CSF treated mice): 2.6 fold
- average spleen weight ([2]; non-hemophilic NOD-SCID mice): 118.5 ± 25.56 mg
- average spleen weight (C57BL mice; C57BL hemophilic (Hem F8, Factor VIII KO) mice): 256.03 ± 149.86 mg and 261 ± 154 mg
- average spleen weight (C57BL mice; non-hemophilic C57BL mice): 181.22 ± 61.43 mg
